Experimental data: patent US12221448B2, “Selective PI3Kδ inhibitor and use thereof” (TARAPEUTICS SCIENCE INC., priority 2018, dated 2025)

How the values were obtained:
PI3Kα = target: T1, PI3Kα (Homo sapiens, UniProt P42336); assay: In vitro enzyme activity (ADP-Glo) against PI3Kα; assay type: biochemical; details: Table 2; ATP 10 μM, PIP2:PS 50 μM
T1 construct: purchased Invitrogen (US)
Procedure: (§1) In vitro enzyme activity experiments were performed to determine the IC50 values of the compounds against PI3K family type I kinases (PI3Kα, PI3Kβ, PI3Kγ, PI3Kδ) and type II kinases (PIK3C2A, PIK3C2B). Protein kinases PI3Kα, PI3Kγ, PI3Kδ, PIK3C2A, and PIK3C2B were all purchased from Invitrogen (US); protein kinase PI3Kβ was purchased from sigma (US); the three substrates PIP2: PS, PI and PI: PS were purchased from Invitrogen (US).
(§2) Protein kinases diluted to a certain concentration, i.e., PI3Kα 5.4 μL (with a final concentration of 0.16 ng/μL), PI3Kβ 5.4 μL (with a final concentration of 6 ng/μL), PI3Kδ 5.4 μL (with a final concentration of 1 ng/μL), PI3Kγ 5.4 μL (with a final concentration of 5 ng/μL), PIK3C2A 5.4 μL (with a final concentration of 5 ng/μL), and PIK3C2B 5.4 μL (with a final concentration of 10 ng/μL) were respectively reacted with 1 μL of the serially diluted drug compounds for 1 hour at room temperature (final drug concentrations were 10 μM, 1 μM, 0.3 μM, 0.1 μM, 0.03 μM, 0.01 μM, 0.003 μM, and 0.001 μM, respectively).
(§3) To each reaction tube of the above PI3K family type I kinases, 6 μL of a mixture of ATP (Promega, US) and substrate PIP2:PS (final concentrations of ATP in the reaction systems of kinases PI3Kα, and PI3Kβ were 10 μM, and final concentrations of ATP in the reaction systems of kinases PI3Kδ, and PI3Kγ were 50 μM, and final concentrations of the substrate PIP2:PS were all 50 μM) was added, and reacted at 37° C. for 1 hour. The reaction buffer was 50 mM Hepes (pH 7.5) (Promega, USA), 3 mM MgCl2, 1 mM EGTA (Promega, US), 100 mM NaCl, 0.03% CHAPS (Promega, US).
(§4) 5 μL of kinase solution after reaction was placed in a 384-well plate (Corning, US), and 5 μL of ADP-Glo™ reagent (Promega, US) was added thereto and reacted at room temperature for 40 minutes to stop the kinase reaction and exhaust the remaining ATP; 10 μL of kinase detection reagent was added to convert ADP into ATP, and coupled luciferase/luciferin reaction was utilized to detect the newly synthesized ATP. Envision was utilized for readout and plotting, and Graphpad IC50 value was calculated.

PI3Kγ = target: T2, PI3Kγ (Homo sapiens, UniProt P48736); assay: In vitro enzyme activity (ADP-Glo) against PI3Kγ; assay type: biochemical; details: Table 2; ATP 50 μM, PIP2:PS 50 μM; read-out: IC50 against PI3Kγ
T2 construct: purchased Invitrogen (US)
Procedure: as §1, §2, §3, §4

PI3Kδ = target: T3, PI3Kδ (Homo sapiens, UniProt O00329); assay: In vitro enzyme activity (ADP-Glo) against PI3Kδ; assay type: biochemical; details: Table 2; ATP 50 μM, PIP2:PS 50 μM
T3 construct: purchased Invitrogen (US)
Procedure: as §1, §2, §3, §4

PI3Kβ = target: T4, PI3Kβ (Homo sapiens, UniProt P42338); assay: In vitro enzyme activity (ADP-Glo) against PI3Kβ; assay type: biochemical; details: Table 2; ATP 10 μM, PIP2:PS 50 μM; read-out: IC50 against PI3Kβ
T4 construct: purchased sigma (US)
Procedure: as §1, §2, §3, §4

PIK3C2A = target: T5, PIK3C2A (Homo sapiens, UniProt O00443); assay: In vitro enzyme activity (ADP-Glo) against PIK3C2A; assay type: biochemical; details: Table 3; ATP 50 μM, substrate PI 100 μM; read-out: IC50 PI3KC2A
T5 construct: purchased Invitrogen (US)
Procedure: as §1, with “(US). […]” for “(US).”
as §4

[1] = test system: rat model of adjuvant arthritis; assay: Efficacy in rat model of rheumatoid arthritis (adjuvant arthritis); assay type: in vivo, Sprague-Dawley (SD) rats; details: 25 mg/kg/day, oral gavage, once a day
Procedure: In this example, the experimental results of Compound 9 were tested in a rat model of adjuvant arthritis.
(1) Sprague-Dawley (SD) rats, female, weighing 180 g±20 g, were purchased from Beijing Vital River Laboratory Animal Technology Co., Ltd. and maintained in an SPL laboratory. Drinking water and litter were sterilized by autoclaving, and all operations related to the rats were performed under sterile conditions.
(2) In the vehicle group and the treatment group, 10.0 mg/ml CFA (complete Freund's adjuvant, purchased from Sigma, US) was mixed thoroughly, and 0.1 ml of the CFA was injected intracutaneously into the right rear vola pedis of each rat on day 0 to induce inflammation; the normal group was injected with saline in the same way.
(3) Body weight and paw swelling were measured every 3 or 4 days after modeling. […]
(4) The body weight and paw swelling were measured every two days after administration, and the paw swelling was measured with a paw swelling meter. […] After the inflammation, the volume of left rear foot was measured to obtain the swelling degree of the secondary paw (Δm1=|paw volume after injection−paw volume before injection|).

PIK3C2B = target: T6, PIK3C2B (Homo sapiens, UniProt O00750); assay: In vitro enzyme activity (ADP-Glo) against PIK3C2B; assay type: biochemical; details: Table 3; ATP 50 μM, substrate PI 100 μM; read-out: IC50 PI3KC2B
T6 construct: purchased Invitrogen (US)
Procedure: as §1, with “(US). […]” for “(US).”
as §4

T1 sequence (P42336 whole entry): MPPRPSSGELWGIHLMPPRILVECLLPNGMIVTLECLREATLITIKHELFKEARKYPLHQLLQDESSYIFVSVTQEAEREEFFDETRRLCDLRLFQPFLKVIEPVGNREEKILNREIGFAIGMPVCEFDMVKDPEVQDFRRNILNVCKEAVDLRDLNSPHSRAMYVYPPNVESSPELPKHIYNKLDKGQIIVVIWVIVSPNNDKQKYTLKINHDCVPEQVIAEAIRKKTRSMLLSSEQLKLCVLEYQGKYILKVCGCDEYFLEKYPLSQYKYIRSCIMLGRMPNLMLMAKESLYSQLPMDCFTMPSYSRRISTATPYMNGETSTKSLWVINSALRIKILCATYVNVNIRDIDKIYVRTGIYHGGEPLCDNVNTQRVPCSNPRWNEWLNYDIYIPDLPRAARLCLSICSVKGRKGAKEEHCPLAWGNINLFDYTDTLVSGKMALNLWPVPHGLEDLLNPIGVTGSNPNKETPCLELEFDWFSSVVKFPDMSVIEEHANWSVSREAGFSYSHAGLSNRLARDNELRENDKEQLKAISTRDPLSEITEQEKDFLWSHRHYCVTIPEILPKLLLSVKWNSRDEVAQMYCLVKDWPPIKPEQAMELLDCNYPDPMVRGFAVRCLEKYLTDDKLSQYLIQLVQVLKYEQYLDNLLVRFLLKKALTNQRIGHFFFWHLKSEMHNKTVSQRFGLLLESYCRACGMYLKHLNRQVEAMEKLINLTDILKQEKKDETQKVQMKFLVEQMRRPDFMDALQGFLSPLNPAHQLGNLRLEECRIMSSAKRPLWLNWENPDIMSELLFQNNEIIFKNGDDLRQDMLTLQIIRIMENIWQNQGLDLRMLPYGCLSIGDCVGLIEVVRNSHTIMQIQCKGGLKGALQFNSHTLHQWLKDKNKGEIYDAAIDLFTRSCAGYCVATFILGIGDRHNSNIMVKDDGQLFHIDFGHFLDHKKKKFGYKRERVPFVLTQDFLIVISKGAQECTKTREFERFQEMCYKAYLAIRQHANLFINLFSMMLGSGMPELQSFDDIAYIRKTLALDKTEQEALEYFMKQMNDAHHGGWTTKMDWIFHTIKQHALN
T1 sequence (P27986 whole entry partner): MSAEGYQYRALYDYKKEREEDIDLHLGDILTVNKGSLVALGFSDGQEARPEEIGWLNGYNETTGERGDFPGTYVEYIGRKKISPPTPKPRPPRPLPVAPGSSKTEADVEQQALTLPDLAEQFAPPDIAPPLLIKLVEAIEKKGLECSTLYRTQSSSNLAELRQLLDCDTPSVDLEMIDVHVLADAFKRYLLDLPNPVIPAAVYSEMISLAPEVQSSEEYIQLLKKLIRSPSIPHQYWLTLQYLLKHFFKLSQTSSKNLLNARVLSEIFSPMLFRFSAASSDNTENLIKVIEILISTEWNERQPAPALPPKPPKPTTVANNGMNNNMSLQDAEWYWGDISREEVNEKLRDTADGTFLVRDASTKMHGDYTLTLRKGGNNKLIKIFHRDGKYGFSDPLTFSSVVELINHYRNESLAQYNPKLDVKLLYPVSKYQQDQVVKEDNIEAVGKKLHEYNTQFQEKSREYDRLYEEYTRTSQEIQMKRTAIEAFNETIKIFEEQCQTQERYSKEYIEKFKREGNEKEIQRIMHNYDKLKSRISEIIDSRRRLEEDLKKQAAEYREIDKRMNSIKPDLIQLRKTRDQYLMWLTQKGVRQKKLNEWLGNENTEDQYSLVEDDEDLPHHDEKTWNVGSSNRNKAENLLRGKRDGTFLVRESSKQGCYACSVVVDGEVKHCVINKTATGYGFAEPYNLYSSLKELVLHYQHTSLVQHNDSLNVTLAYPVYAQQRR
T3 sequence (O00329 whole entry): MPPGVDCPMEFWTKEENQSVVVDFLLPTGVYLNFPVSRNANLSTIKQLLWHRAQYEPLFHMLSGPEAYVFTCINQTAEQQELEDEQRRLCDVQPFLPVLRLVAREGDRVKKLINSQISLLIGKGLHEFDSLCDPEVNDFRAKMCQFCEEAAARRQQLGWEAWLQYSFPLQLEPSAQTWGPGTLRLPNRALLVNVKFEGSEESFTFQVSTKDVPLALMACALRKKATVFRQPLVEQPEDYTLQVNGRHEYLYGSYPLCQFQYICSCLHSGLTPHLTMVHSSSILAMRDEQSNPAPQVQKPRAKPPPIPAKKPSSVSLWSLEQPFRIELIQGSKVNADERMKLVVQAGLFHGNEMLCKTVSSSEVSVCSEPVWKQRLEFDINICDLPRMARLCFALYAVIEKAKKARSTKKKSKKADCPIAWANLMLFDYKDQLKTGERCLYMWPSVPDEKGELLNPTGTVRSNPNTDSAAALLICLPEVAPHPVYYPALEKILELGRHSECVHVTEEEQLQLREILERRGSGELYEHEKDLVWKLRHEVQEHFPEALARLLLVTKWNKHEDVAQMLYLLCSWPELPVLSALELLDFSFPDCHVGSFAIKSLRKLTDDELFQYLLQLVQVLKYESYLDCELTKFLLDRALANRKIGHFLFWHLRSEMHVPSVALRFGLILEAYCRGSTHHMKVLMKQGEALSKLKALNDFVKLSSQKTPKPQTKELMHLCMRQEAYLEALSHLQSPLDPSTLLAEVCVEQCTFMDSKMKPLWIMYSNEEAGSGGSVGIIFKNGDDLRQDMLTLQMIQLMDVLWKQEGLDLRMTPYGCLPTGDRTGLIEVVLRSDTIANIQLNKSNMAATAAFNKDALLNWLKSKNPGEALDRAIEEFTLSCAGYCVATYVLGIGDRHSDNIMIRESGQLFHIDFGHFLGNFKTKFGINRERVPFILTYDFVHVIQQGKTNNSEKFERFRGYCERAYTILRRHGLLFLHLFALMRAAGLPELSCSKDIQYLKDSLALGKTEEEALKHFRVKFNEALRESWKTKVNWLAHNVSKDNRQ
T3 sequence (P27986 whole entry partner): as the sequence (P27986 whole entry partner) above
T2 sequence (P48736 whole entry): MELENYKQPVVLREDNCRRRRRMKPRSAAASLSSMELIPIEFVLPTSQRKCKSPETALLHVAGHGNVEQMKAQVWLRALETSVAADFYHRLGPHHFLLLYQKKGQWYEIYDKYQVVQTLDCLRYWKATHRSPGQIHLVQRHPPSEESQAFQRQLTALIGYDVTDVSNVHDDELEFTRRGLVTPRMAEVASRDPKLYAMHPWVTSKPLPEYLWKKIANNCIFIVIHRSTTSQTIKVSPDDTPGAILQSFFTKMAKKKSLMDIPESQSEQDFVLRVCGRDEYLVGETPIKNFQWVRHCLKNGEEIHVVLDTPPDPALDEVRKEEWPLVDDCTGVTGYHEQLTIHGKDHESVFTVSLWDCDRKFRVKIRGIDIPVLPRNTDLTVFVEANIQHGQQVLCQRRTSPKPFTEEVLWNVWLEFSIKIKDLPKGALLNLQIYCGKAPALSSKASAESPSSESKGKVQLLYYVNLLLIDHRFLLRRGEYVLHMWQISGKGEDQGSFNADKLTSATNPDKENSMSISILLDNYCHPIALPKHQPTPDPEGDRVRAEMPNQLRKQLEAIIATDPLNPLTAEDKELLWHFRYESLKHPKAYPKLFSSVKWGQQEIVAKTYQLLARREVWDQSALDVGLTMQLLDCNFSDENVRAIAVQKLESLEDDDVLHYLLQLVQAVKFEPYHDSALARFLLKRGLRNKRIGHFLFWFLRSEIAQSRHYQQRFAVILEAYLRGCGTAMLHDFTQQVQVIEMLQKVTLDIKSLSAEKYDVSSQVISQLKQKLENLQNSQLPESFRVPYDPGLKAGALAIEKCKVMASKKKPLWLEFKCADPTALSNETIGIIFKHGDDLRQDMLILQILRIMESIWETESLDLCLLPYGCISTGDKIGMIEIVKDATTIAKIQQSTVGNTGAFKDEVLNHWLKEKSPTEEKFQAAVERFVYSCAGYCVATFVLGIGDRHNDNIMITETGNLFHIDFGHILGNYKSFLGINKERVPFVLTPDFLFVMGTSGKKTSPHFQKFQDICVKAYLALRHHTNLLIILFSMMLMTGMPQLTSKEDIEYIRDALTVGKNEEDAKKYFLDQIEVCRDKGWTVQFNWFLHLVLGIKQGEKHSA
T4 sequence (P42338 whole entry): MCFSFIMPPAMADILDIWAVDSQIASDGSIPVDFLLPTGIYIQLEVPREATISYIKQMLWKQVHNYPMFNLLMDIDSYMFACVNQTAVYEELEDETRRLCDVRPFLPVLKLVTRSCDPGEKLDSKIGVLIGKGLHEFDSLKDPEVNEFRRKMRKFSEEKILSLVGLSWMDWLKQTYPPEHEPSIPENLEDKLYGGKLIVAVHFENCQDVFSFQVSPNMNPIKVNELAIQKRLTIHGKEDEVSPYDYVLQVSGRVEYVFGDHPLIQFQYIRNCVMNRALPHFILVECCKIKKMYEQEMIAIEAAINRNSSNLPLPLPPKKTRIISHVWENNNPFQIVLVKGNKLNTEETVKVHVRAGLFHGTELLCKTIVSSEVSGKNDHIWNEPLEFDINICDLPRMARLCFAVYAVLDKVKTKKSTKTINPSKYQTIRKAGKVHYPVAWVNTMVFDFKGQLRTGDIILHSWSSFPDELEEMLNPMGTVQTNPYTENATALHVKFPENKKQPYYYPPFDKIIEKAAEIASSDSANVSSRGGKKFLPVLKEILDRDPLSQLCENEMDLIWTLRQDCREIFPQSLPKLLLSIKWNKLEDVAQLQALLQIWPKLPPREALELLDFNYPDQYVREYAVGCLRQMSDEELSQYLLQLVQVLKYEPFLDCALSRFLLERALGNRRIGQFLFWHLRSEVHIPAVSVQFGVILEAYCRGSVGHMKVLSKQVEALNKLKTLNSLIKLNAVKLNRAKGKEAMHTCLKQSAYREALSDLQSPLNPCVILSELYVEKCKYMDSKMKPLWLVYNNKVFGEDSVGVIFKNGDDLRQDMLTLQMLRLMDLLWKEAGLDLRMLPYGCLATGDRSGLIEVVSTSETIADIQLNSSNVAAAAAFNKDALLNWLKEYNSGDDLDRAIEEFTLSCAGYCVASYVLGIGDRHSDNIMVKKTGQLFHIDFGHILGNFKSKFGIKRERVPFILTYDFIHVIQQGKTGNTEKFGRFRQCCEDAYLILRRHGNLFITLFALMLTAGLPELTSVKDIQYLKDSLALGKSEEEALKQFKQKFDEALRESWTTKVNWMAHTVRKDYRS
T4 sequence (P27986 whole entry partner): as the sequence (P27986 whole entry partner) above

| Structure (SMILES) | IC50 (PI3Kα) [µM] | IC50 (PI3Kγ) [µM] | IC50 (PI3Kδ) [µM] | IC50 (PI3Kβ) [µM] | IC50 (PIK3C2A) [nM] | IC50 (PIK3C2B) [nM] | effect on the body weight of rats ([1]; 14 days, FIG. 1a) | paw swelling as compared with the vehicle group ([1]; after 14 days of administration, FIG. 1b) |
| --- | --- | --- | --- | --- | --- | --- | --- | --- |
| COc1ccc(-c2nn(C(C)c3nc4ccccc4c(=O)n3C3CCC3)c3ncnc(N)c23)cc1 (centres unmarked) [Compound 37, 2-(1-(4-amino-3-(4-methoxyphenyl)-1H-pyrazolo [3,4-d]pyrimidin-1-yl)ethyl)-3-cyclobutylquinazolin-4(3H)-one] | 4.21 | 0.753 | 0.001 | 3.28 | – | – | – | – |
| COc1ccc(-c2nn(C(C)c3nc4ccccc4c(=O)n3C3CCC3)c3ncnc(N)c23)cc1OC (centres unmarked) [Compound 38, 2-(1-(4-amino-3-(3,4-dimethoxyphenyl)-1H-pyrazolo [3,4-d]pyrimidin-1-yl)ethyl)-3-cyclobutylquinazolin-4(3H)-one] | 2.23 | 0.261 | 0.00959 | 0.581 | – | – | – | – |
| COc1ccc(-c2nn(C(C)c3nc4ccc(F)cc4c(=O)n3C3CC3)c3ncnc(N)c23)cc1F (centres unmarked) [Compound 22, 2-(1-(4-amino-3-(3-fluoro-4-methoxyphenyl)-1H-pyrazolo [3,4-d]pyrimidin-1-yl)ethyl)-3-cyclopropyl-6-fluoroquinazolin-4(3H)-one] | 1.69 | 0.485 | 0.0041 | 0.344 | – | – | – | – |
| COc1ccc(-c2nn(Cc3nc4cccc(F)c4c(=O)n3C3CC3)c3ncnc(N)c23)cc1F [Compound 6, 2-((4-amino-3-(3-fluoro-4-methoxyphenyl)-1H-pyrazolo [3,4-d]pyrimidin-1-yl)methyl)-3-cyclopropyl-5-fluoroquinazolin-4(3H)-one] | 1.69 | 0.299 | 0.031 | 0.523 | – | – | – | – |
| CCC(c1nc2cccc(F)c2c(=O)n1C1CC1)n1nc(-c2ccc(OC)c(F)c2)c2c(N)ncnc21 (centres unmarked) [Compound 9, 2-(1-(4-amino-3-(3-fluoro-4-methoxyphenyl)-1H-pyrazolo [3,4-d]pyrimidin-1-yl)propyl)-3-cyclopropyl-5-fluoroquinazolin-4(3H)-one] | 3.35 | 0.685 | 0.0173 | 1.16 | > 10000 | 9960 | no significant effect | significantly reduced |
| CCC(c1nc2ccc(F)cc2c(=O)n1C1CC1)n1nc(-c2ccc(OC)c(F)c2)c2c(N)ncnc21 (centres unmarked) [Compound 23, 2-(1-(4-amino-3-(3-fluoro-4-methoxyphenyl)-1H-pyrazolo [3,4-d]pyrimidin-1-yl)propyl)-3-cyclopropyl-6-fluoroquinazolin-4(3H)-one] | 6.44 | 0.922 | 0.0095 | 0.999 | – | – | – | – |
| COc1ccc(-c2nn(C(C)c3nc4ccc(F)cc4c(=O)n3C3CC3)c3ncnc(N)c23)cc1 (centres unmarked) [Compound 42, 2-(1-(4-amino-3-(4-methoxyphenyl)-1H-pyrazolo [3,4-d]pyrimidin-1-yl)ethyl)-3-cyclopropyl-6-fluoroquinazolin-4(3H)-one] | 3.77 | 0.576 | 0.0083 | 0.69 | – | – | – | – |
| CC[C@@H](c1nc2cccc(F)c2c(=O)n1C1CC1)n1nc(-c2ccc(OC)c(F)c2)c2c(N)ncnc21 [Compound 81, 2-((S)-1-(4-amino-3-(3-fluoro-4-methoxyphenyl)-1H-pyrazolo [3,4-d]pyrimidin-1-yl)propyl)-3-cyclopropyl-5-fluoroquinazolin-4(3H)-one] | – | 0.471 | 0.0164 | 0.79 | – | – | – | – |
| CCC(c1nc2ccccc2c(=O)n1C1CC1)n1nc(-c2ccc(OC)c(F)c2)c2c(N)ncnc21 (centres unmarked) [Compound 11, 2-(1-(4-amino-3-(3-fluoro-4-methoxyphenyl)-1H-pyrazolo [3,4-d]pyrimidin-1-yl)propyl)-3-cyclopropylquinazolin-4(3H)-one] | – | 0.389 | 0.0183 | 0.27 | – | – | – | – |
| COc1ccc(-c2nn(C(C)c3nc4ccccc4c(=O)n3C3CC3)c3ncnc(N)c23)cc1F (centres unmarked) [Compound 10, 2-(1-(4-amino-3-(3-fluoro-4-methoxyphenyl)-1H-pyrazolo [3,4-d]pyrimidin-1-yl)ethyl)-3-cyclopropylquinazolin-4(3H)-one] | – | 0.103 | 0.0064 | 0.122 | – | – | – | – |

The next lines start with results.

| IC50 (PI3Kα) [µM] | IC50 (PI3Kγ) [µM] | IC50 (PI3Kδ) [µM] | IC50 (PI3Kβ) [µM] | IC50 (PIK3C2A) [nM] | IC50 (PIK3C2B) [nM] | Structure (SMILES) | effect on the body weight of rats ([1]; 14 days, FIG. 1a) | paw swelling as compared with the vehicle group ([1]; after 14 days of administration, FIG. 1b) |
| --- | --- | --- | --- | --- | --- | --- | --- | --- |
| 1.1 | 0.434 | 0.0103 | – | – | – | COc1ccc(-c2nn(C(C)c3nc4cccc(F)c4c(=O)n3C3CCC3)c3ncnc(N)c23)cc1OC (centres unmarked) [Compound 27, 2-(1-(4-amino-3-(3,4-dimethoxyphenyl)-1H-pyrazolo [3,4-d]pyrimidin-1-yl)ethyl)-3-cyclobutyl-5-fluoroquinazolin-4(3H)-one] | – | – |
| 1.72 | 0.148 | 0.014 | 1.3 | – | – | COc1ccc(-c2nn(C(C)c3nc4cccc(F)c4c(=O)n3C3CC3)c3ncnc(N)c23)cc1F (centres unmarked) [Compound 8, 2-(1-(4-amino-3-(3-fluoro-4-methoxyphenyl)-1H-pyrazolo [3,4-d]pyrimidin-1-yl)ethyl)-3-cyclopropyl-5-fluoroquinazolin-4(3H)-one] | – | – |
| 5.52 | 1.72 | 0.0186 | > 10 | – | – | COc1ccc(-c2nn(C(C)c3nc4cccc(F)c4c(=O)n3C3CCCC3)c3ncnc(N)c23)cc1F (centres unmarked) [Compound 5, 2-(1-(4-amino-3-(3-fluoro-4-methoxyphenyl)-1H-pyrazolo [3,4-d]pyrimidin-1-yl)ethyl)-3-cyclopentyl-5-fluoroquinazolin-4(3H)-one] | – | – |
| – | > 10 | 0.0319 | > 10 | – | – | COc1ccc(-c2nn(C(C)c3nc4cccc(F)c4c(=O)n3C3CCCC3)c3ncnc(N)c23)cc1 (centres unmarked) [Compound 14, 2-(1-(4-amino-3-(4-methoxyphenyl)-1H-pyrazolo [3,4-d]pyrimidin-1-yl)ethyl)-3-cyclopentyl-5-fluoroquinazolin-4(3H)-one] | – | – |
| 7.41 | 4.09 | 0.0274 | 2.96 | – | – | COc1ccc(-c2nn(C(C)c3nc4cccc(F)c4c(=O)n3C3CCC3)c3ncnc(N)c23)cc1F (centres unmarked) [Compound 1, 2-(1-(4-amino-3-(3-fluoro-4-methoxyphenyl)-1H-pyrazolo [3,4-d]pyrimidin-1-yl)ethyl)-3-cyclobutyl-5-fluoroquinazolin-4(3H)-one] | – | – |
